Data published in patent US12053506B2, “Romo1-derived antimicrobial peptides and variants thereof” (priority 2019, dated 2024).
No end group written: not given here.

System: multidrug-resistant Pseudomonas aeruginosa
Experiment: not given
Details: 4 h
Protocol: (§1) First, each of Pseudomonas aeruginosa (ATCC 27853) and Staphylococcus aureus (ATCC 29213) was cultured in 3% (w/v) TSB (Tryptic Soy Broth) liquid medium at 37° C. and 200 rpm for 4 hours, and then further cultured under the same conditions for 3 hours to a concentration of 5×10^6 CFU/ml. Strain solutions were prepared by diluting each of the further cultured strains with SP (sodium phosphate; 10 mM sodium phosphate, 1% TSB) buffer to a final concentration of 2×10^5 CFU/ml.
(§2) Then, each peptide at varying concentrations (0 μg/ml to 300 μg/ml) was dispensed into each well of a 96-well microplate, and 100 μl (1×10^5 CFU/ml) of each of the prepared strain solutions was added thereto, mixed therewith, and allowed to react with the peptide in an incubator at 37° C. for 1 hour.
(§3) In addition, 30 g/L of TS (tryptic soy) and 15 g/L of agar were dissolved in distilled water and sterilized, and then 25 ml of the solution was poured onto a 100 mm round plate and solidified at room temperature for one day or more, thereby preparing a TS agar plate. 10 μl of each reaction solution of the peptide and the strain was plated on the TS agar plate at a constant size, and incubated in an incubator at 37° C. for 18 hours, and then colony formation on the plate was checked.
(§4) Specifically, each type of bacteria was cultured in 3% (w/v) TSB (Tryptic Soy Broth) liquid medium at 37° C. and 200 rpm for 4 hours, and then further cultured under the same conditions for 3 hours to a concentration of 5×10^6 CFU/ml. Strain solutions were prepared by diluting each of the […] of 2×10^5 CFU/ml.
as §2, with “Then, the KU-5878” for “Then, each”
(§5) In addition, 10 μl of each reaction solution of the peptide and the strain was plated on the TS agar plate at a constant size, and incubated in an incubator at 37° C. for 18 hours, and then colony formation on the plate was checked.
Meanwhile, the multidrug-resistant Pseudomonas aeruginosa, multidrug-resistant Acinetobacter and multidrug-resistant Klebsiella in Table 2 below were bacteria isolated from patients at Korea University Anam Hospital. […] Then, these bacteria were used in the experiment.

Row | Sequence | MBC value (μg/ml) against multidrug-resistant Pseudomonas aeruginosa [µg/mL]
1 | KRMMQSGGTFGTFMAIGMGIR [KU-5878-T59R] | 35
2 | KKMMKSGGTFGTFMAIGMGIR [KU-5878-K2] | 8
3 | KTMMQSGGTFGTFMAIGMGIK [KU-5878-R78K] | >300
4 | KTMMQSGGKFGTFMAIGMGIR [KU-5878-T66K] | 80
5 | KKMMQSGGTFGTFMAIGMGIR [KU-5878-T59K] | 45

System: Pseudomonas aeruginosa (ATCC 27853)
Experiment: not given
Type: cell-based
Details: ATCC 27853, 1 h
From the text: (§6) Romo1 protein comprises two α-helices. The present inventors synthesized the α-helix 2 region having both hydrophilicity and hydrophobicity, and evaluated the antibacterial activity thereof using minimum bactericidal concentration (MBC) assay. The α-helix 2 region was named KU-5279 (the 52-79 amino acid region of Romo1 protein). Then, in order to identify peptides that are beneficial for human application and have excellent antibacterial activity, the present inventors synthesized several peptides comprising a sequence of contiguous amino acids starting at any amino acid selected from the 52-79 amino acid region of Romo1 protein, and comparatively evaluated the antibacterial activities of the peptides by minimum bactericidal concentration assay (See Table 1 below for information on each peptide). Evaluation of the antibacterial activity of each peptide by minimum bactericidal concentration assay was specifically performed as follows. First, each of Pseudomonas aeruginosa (ATCC 27853) and Staphylococcus aureus (ATCC 29213) was cultured in 3% (w/v) TSB (Tryptic Soy Broth) liquid medium at 37° C. and 200 rpm for 4 hours, and then further cultured under the same conditions for 3 hours to a concentration of 5×10^6 CFU/ml. Strain solutions were prepared by diluting each of the further cultured strains with SP (sodium phosphate; 10 mM sodium phosphate, 1% TSB) buffer to a final concentration of 2×10^5 CFU/ml. Then, each peptide at varying concentrations (0 μg/ml to 300 μg/ml) was dispensed into each well of a 96-well microplate, and 100 μl (1×10^5 CFU/ml) of each of the prepared strain solutions was added thereto, mixed therewith, and allowed to react with the peptide in an incubator at 37° C. for 1 hour. In addition, 30 g/L of TS (tryptic soy) and 15 g/L of agar were dissolved in distilled water and sterilized, and then 25 ml of the solution was poured onto a 100 mm round plate and solidified at room temperature for one day or more, thereby preparing a TS agar plate. 10 μl of each reaction solution of the peptide and the strain was plated on the TS agar plate at a constant size, and incubated in an incubator at 37° C. for 18 hours, and then colony formation on the plate was checked. The minimum bactericidal concentration was defined as the minimum concentration of the peptide at which no colony was formed, and the experimental results are shown in Table 1 below.

Row | Sequence | MBC value (μg/ml) against Pseudomonas aeruginosa [µg/mL]
6 | KRMMQSGGTFGTFMAIGMGIR [KU-5878-T59R] | 30
7 | KKMMKSGGTFGTFMAIGMGIR [KU-5878-K2] | 8
8 | KTMMQSGGTFGTFMAIGMGIK [KU-5878-R78K] | >300
9 | KTMMQSGGKFGTFMAIGMGIR [KU-5878-T66K] | 80
10 | KKMMQSGGTFGTFMAIGMGIR [KU-5878-T59K] | 50

Same assay, conditions: Tables 11-15, no unit printed

Row | Sequence | MBC Pseudomonas aeruginosa [µg/mL]
11 | KRMMQSGGTFGTFMAIGMGIR [KU-5878-T59R] | 30
12 | KKMMKSGGTFGTFMAIGMGIR [KU-5878-K2] | 8
13 | KTMMQSGGTFGTFMAIGMGIK [KU-5878-R78K] | > 300
14 | KTMMQSGGKFGTFMAIGMGIR [KU-5878-T66K] | 80
15 | KKMMQSGGTFGTFMAIGMGIR [KU-5878-T59K] | 50

System: Staphylococcus aureus (ATCC 29213)
Experiment: not given
Type: cell-based
Details: ATCC 29213, 1 h
From the text: as §6

Row | Sequence | MBC value (μg/ml) against Staphylococcus aureus [µg/mL]
16 | KRMMQSGGTFGTFMAIGMGIR [KU-5878-T59R] | 25
17 | KKMMKSGGTFGTFMAIGMGIR [KU-5878-K2] | 8
18 | KTMMQSGGTFGTFMAIGMGIK [KU-5878-R78K] | >300
19 | KTMMQSGGKFGTFMAIGMGIR [KU-5878-T66K] | 60
20 | KKMMQSGGTFGTFMAIGMGIR [KU-5878-T59K] | 40

Same assay, conditions: Tables 11-15, no unit printed

Row | Sequence | MBC Staphylococcus aureus [µg/mL]
21 | KRMMQSGGTFGTFMAIGMGIR [KU-5878-T59R] | 25
22 | KKMMKSGGTFGTFMAIGMGIR [KU-5878-K2] | 8
23 | KTMMQSGGTFGTFMAIGMGIK [KU-5878-R78K] | > 300
24 | KTMMQSGGKFGTFMAIGMGIR [KU-5878-T66K] | 60
25 | KKMMQSGGTFGTFMAIGMGIR [KU-5878-T59K] | 40

System: CRPA
Experiment: MBC, evaluation of antibacterial activities of KU-5878 variants
Type: cell-based
Details: Tables 11-15, no unit printed
Protocol: Variants were prepared by deleting one amino acid from the amino acid sequence of KU-5878 (SEQ ID NO: 13), and the antibacterial activities thereof were evaluated.
Variants were prepared by deleting two or more amino acids from the amino acid sequence of KU-5878 (SEQ ID NO: 13), and the antibacterial activities thereof were evaluated.
One amino acid in the amino acid sequence of KU-5878 (SEQ ID NO: 13) was substituted, and the antibacterial activities of the peptides were evaluated.
Substitutions of Q62K, S63K and T66K were sequentially added to the amino acid sequence of KU-5878-T59K, and the antibacterial activities of the peptides were evaluated.
An amino acid repeat sequence was added to the C-terminus of KU-5878, and the antibacterial activities of the peptides were evaluated. According to Table 15 below, when the R (arginine) repeat sequence or K (lysine) sequence was added to the C-terminus of KU-5878, the antibacterial activity of the peptide increased.

Row | Sequence | MBC CRPA [µg/mL]
26 | KRMMQSGGTFGTFMAIGMGIR [KU-5878-T59R] | 30
27 | KKMMKSGGTFGTFMAIGMGIR [KU-5878-K2] | 6
28 | KTMMQSGGTFGTFMAIGMGIK [KU-5878-R78K] | > 300
29 | KTMMQSGGKFGTFMAIGMGIR [KU-5878-T66K] | 70
30 | KKMMQSGGTFGTFMAIGMGIR [KU-5878-T59K] | 50

System: methicillin-resistant Staphylococcus aureus (ATCC 33591)
Experiment: not given
Details: ATCC 33591, 4 h
Protocol: as §1, §2, §3, §4
as §2, with “Then, the KU-5878” for “Then, each”
as §5

Row | Sequence | MBC value (μg/ml) against methicillin-resistant Staphylococcus aureus [µg/mL]
31 | KRMMQSGGTFGTFMAIGMGIR [KU-5878-T59R] | 30
32 | KKMMKSGGTFGTFMAIGMGIR [KU-5878-K2] | 8
33 | KTMMQSGGTFGTFMAIGMGIK [KU-5878-R78K] | >300
34 | KTMMQSGGKFGTFMAIGMGIR [KU-5878-T66K] | 70
35 | KKMMQSGGTFGTFMAIGMGIR [KU-5878-T59K] | 45

Same assay, conditions: Tables 11-15, no unit printed

Row | Sequence | MBC MRSA [µg/mL]
36 | KRMMQSGGTFGTFMAIGMGIR [KU-5878-T59R] | 30
37 | KKMMKSGGTFGTFMAIGMGIR [KU-5878-K2] | 8
38 | KTMMQSGGTFGTFMAIGMGIK [KU-5878-R78K] | > 300
39 | KTMMQSGGKFGTFMAIGMGIR [KU-5878-T66K] | 80
40 | KKMMQSGGTFGTFMAIGMGIR [KU-5878-T59K] | 50
